Structures can show the parent of a compound that is named as a salt.
Experiments:
Ca-Ski = experiment: cells; format: functional, cell-based, Homo sapiens; conditions: Homo sapiens, Ca-Ski;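 also: cell viability assay measuring inhibition of Ca-Ski cell growth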
Description: SANGER: Inhibition of human Ca-Ski cell growth in a cell viability assay.

CaR-1 = experiment: cells; format: functional, cell-based, Homo sapiens; conditions: Homo sapiens, CaR-1;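 also: growth inhibition of human CaR-1 cancer cells, read out with a cell viability assay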
Description: SANGER: Inhibition of human CaR-1 cell growth in a cell viability assay.

Capan-2 = experiment: cells; format: functional, cell-based, Homo sapiens; conditions: Homo sapiens, Capan-2;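 also: Capan-2 cell growth inhibition, read out with a viability assay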
Description: SANGER: Inhibition of human Capan-2 cell growth in a cell viability assay.

DMS-153 = experiment: cells; format: functional, cell-based, Homo sapiens; conditions: Homo sapiens, DMS-153
Description: SANGER: Inhibition of human DMS-153 cell growth in a cell viability assay.

DU-145 = experiment: cells; format: functional, cell-based, Homo sapiens; conditions: Homo sapiens, DU-145
Description: SANGER: Inhibition of human DU-145 cell growth in a cell viability assay.

DoTc2-4510 = experiment: cells; format: functional, cell-based, Homo sapiens; conditions: Homo sapiens, DoTc2-4510
FTC-133 = experiment: cells; format: functional, cell-based, Homo sapiens; conditions: Homo sapiens, FTC-133
G-401 = experiment: cells; format: functional, cell-based, Homo sapiens; conditions: Homo sapiens, G-401
Description: SANGER: Inhibition of human G-401 cell growth in a cell viability assay.

H4 = experiment: cells; format: functional, cell-based, Homo sapiens; conditions: Homo sapiens, H4
Description: SANGER: Inhibition of human H4 cell growth in a cell viability assay.

HO-1-N-1 = experiment: cells; format: functional, cell-based, Homo sapiens; conditions: Homo sapiens, HO-1-N-1;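 also: growth inhibition of human HO-1-N-1 cells, read out with a cell viability assay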
Description: SANGER: Inhibition of human HO-1-N-1 cell growth in a cell viability assay.

HT-1080 = experiment: cells; format: functional, cell-based, Homo sapiens; conditions: Homo sapiens, HT-1080
Description: SANGER: Inhibition of human HT-1080 cell growth in a cell viability assay.

HT1197 = experiment: cells; format: functional, cell-based, Homo sapiens, HT-1197; conditions: Homo sapiens, HT1197
Description: SANGER: Inhibition of human HT-1197 cell growth in a cell viability assay.

HT55 = experiment: cells; format: functional, cell-based, Homo sapiens; conditions: Homo sapiens, HT55;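 also: cell viability readout measuring growth inhibition of human HT55 cells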
Description: SANGER: Inhibition of human HT55 cell growth in a cell viability assay.

HTC-C3 = experiment: cells; format: functional, cell-based, Homo sapiens; conditions: Homo sapiens, HTC-C3;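 also: inhibition of cell growth, read out with a cell viability assay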
Description: SANGER: Inhibition of human HTC-C3 cell growth in a cell viability assay.

KYSE-180 = experiment: cells; format: functional, cell-based, Homo sapiens; conditions: Homo sapiens, KYSE-180;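 also: growth inhibition of KYSE-180 cells, read out with a cell viability assay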
Description: SANGER: Inhibition of human KYSE-180 cell growth in a cell viability assay.

L-540 = experiment: cells; format: functional, cell-based, Homo sapiens; conditions: Homo sapiens, L-540;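 also: growth inhibition of the human L-540 cell line, read out with a viability assay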
Description: SANGER: Inhibition of human L-540 cell growth in a cell viability assay.

LC-1F = experiment: cells; format: functional, cell-based, Homo sapiens; conditions: Homo sapiens, LC-1F;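 also: growth inhibition of human LC-1F cells, read out with a cell viability assay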
Description: SANGER: Inhibition of human LC-1F cell growth in a cell viability assay.

LP-1 = experiment: cells; format: functional, cell-based, Homo sapiens; conditions: Homo sapiens, LP-1;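 also: growth inhibition of human LP-1 cells, with the read-out taken from a cell viability assay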
Description: SANGER: Inhibition of human LP-1 cell growth in a cell viability assay.

LU-165 = experiment: cells; format: functional, cell-based, Homo sapiens; conditions: Homo sapiens, LU-165
Description: SANGER: Inhibition of human LU-165 cell growth in a cell viability assay.

LU-99A = experiment: cells; format: functional, cell-based, Homo sapiens; conditions: Homo sapiens, LU-99A;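 also: growth inhibition of LU-99A cells, read out with a cell viability assay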
Description: SANGER: Inhibition of human LU-99A cell growth in a cell viability assay.

MC-CAR = experiment: cells; format: functional, cell-based, Homo sapiens; conditions: Homo sapiens, MC-CAR;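 also: growth inhibition of the human MC-CAR cell line, read out by a cell viability assay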
Description: SANGER: Inhibition of human MC-CAR cell growth in a cell viability assay.

MDA-MB-175-VII = experiment: cells; format: functional, cell-based, Homo sapiens; conditions: Homo sapiens, MDA-MB-175-VII
MDA-MB-453 = experiment: cells; format: functional, cell-based, Homo sapiens; conditions: Homo sapiens, MDA-MB-453
Description: SANGER: Inhibition of human MDA-MB-453 cell growth in a cell viability assay.

MRK-nu-1 = experiment: cells; format: functional, cell-based, Homo sapiens; conditions: Homo sapiens, MRK-nu-1;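 also: cell viability assay measuring growth suppression of human MRK-nu-1 cells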
Description: SANGER: Inhibition of human MRK-nu-1 cell growth in a cell viability assay.

NCI-H2009 = experiment: cells; format: functional, cell-based, Homo sapiens; conditions: Homo sapiens, NCI-H2009;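 also: cell viability assay measuring inhibition of NCI-H2009 cell growth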
Description: SANGER: Inhibition of human NCI-H2009 cell growth in a cell viability assay.

NCI-H524 = experiment: cells; format: functional, cell-based, Homo sapiens; conditions: Homo sapiens, NCI-H524;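 also: growth inhibition of human NCI-H524 cells, read out through a cell viability assay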
Description: SANGER: Inhibition of human NCI-H524 cell growth in a cell viability assay.

NCI-H748 = experiment: cells; format: functional, cell-based, Homo sapiens; conditions: Homo sapiens, NCI-H748;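 also: growth inhibition of NCI-H748 cells, measured by a cell viability assay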
Description: SANGER: Inhibition of human NCI-H748 cell growth in a cell viability assay.

NCI-H810 = experiment: cells; format: functional, cell-based, Homo sapiens; conditions: Homo sapiens, NCI-H810;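 also: IC50 reflects inhibition of cancer cell line growth, read out with a cell viability assay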
Description: SANGER: Inhibition of human NCI-H810 cell growth in a cell viability assay.

SNU-16 = experiment: cells; format: functional, cell-based, Homo sapiens; conditions: Homo sapiens, SNU-16;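 also: growth inhibition of human SNU-16 cells, determined with a cell viability readout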
Description: SANGER: Inhibition of human NCI-SNU-16 cell growth in a cell viability assay.

NY = experiment: cells; format: functional, cell-based, Homo sapiens; conditions: Homo sapiens, NY
Description: SANGER: Inhibition of human NY cell growth in a cell viability assay.

RCM-1 = experiment: cells; format: functional, cell-based, Homo sapiens; conditions: Homo sapiens, RCM-1;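 also: growth inhibition of the RCM-1 line, determined with a cell viability readout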
Description: SANGER: Inhibition of human RCM-1 cell growth in a cell viability assay.

SCLC-21H = experiment: cells; format: functional, cell-based, Homo sapiens; conditions: Homo sapiens, SCLC-21H;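 also: growth inhibition of cultured human SCLC-21H cells, read out with a cell viability assay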
Description: SANGER: Inhibition of human SCLC-21H cell growth in a cell viability assay.

SK-MEL-24 = experiment: cells; format: functional, cell-based, Homo sapiens; conditions: Homo sapiens, SK-MEL-24;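 also: growth inhibition read out by a cell viability assay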
Description: SANGER: Inhibition of human SK-MEL-24 cell growth in a cell viability assay.

SNU-387 = experiment: cells; format: functional, cell-based, Homo sapiens; conditions: Homo sapiens, SNU-387
Description: SANGER: Inhibition of human SNU-387 cell growth in a cell viability assay.

SUP-T1 = experiment: cells; format: functional, cell-based, Homo sapiens; conditions: Homo sapiens, SUP-T1;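 also: growth inhibition of human SUP-T1 cells, read out as cell viability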
Description: SANGER: Inhibition of human SUP-T1 cell growth in a cell viability assay.

SW1088 = experiment: cells; format: functional, cell-based, Homo sapiens; conditions: Homo sapiens, SW1088;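 also: growth inhibition of human SW1088 cells, read out by a cell viability assay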
Description: SANGER: Inhibition of human SW1088 cell growth in a cell viability assay.

SW1417 = experiment: cells; format: functional, cell-based, Homo sapiens; conditions: Homo sapiens, SW1417;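 also: growth inhibition of human SW1417 cells, read out with a cell viability assay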
Description: SANGER: Inhibition of human SW1417 cell growth in a cell viability assay.

SW1710 = experiment: cells; format: functional, cell-based, Homo sapiens; conditions: Homo sapiens, SW1710;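 also: growth inhibition of SW1710 cells, determined with a cell viability assay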
Description: SANGER: Inhibition of human SW1710 cell growth in a cell viability assay.

SW48 = experiment: cells; format: functional, cell-based, Homo sapiens; conditions: Homo sapiens, SW48;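 also: growth inhibition of SW48 cells, read out with a cell viability assay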
Description: SANGER: Inhibition of human SW48 cell growth in a cell viability assay.

A-375 = experiment: cells; format: functional, cell-based, Homo sapiens; conditions: Homo sapiens, A-375;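 also: growth inhibition of A375 cells, read out with a cell viability assay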
Description: SANGER: Inhibition of human A375 cell growth in a cell viability assay.

BHT-101 = experiment: cells; format: functional, cell-based, Homo sapiens; conditions: Homo sapiens, BHT-101
Description: SANGER: Inhibition of human BHT-101 cell growth in a cell viability assay.

BL-70 = experiment: SANGER: Inhibition of human BL-70 cell growth in a cell viability assay.; format: functional, cell-based; conditions: Homo sapiens, BL-70
C3A = experiment: cells; format: functional, cell-based, Homo sapiens; conditions: Homo sapiens, C3A;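 also: growth inhibition of C3A human cells, quantified with a cell viability readout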
Description: SANGER: Inhibition of human C3A cell growth in a cell viability assay.

CAL-62 = experiment: cells; format: functional, cell-based, Homo sapiens; conditions: Homo sapiens, CAL-62;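 also: growth inhibition of CAL-62 cells, read out with a cell viability assay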
Description: SANGER: Inhibition of human CAL-62 cell growth in a cell viability assay.

THP-1 = experiment: cells; format: functional, cell-based, Homo sapiens; conditions: Homo sapiens, THP-1;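 also: growth inhibition of THP-1 cells, read out via a cell viability assay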
Description: SANGER: Inhibition of human THP-1 cell growth in a cell viability assay.

VMRC-RCZ = experiment: cells; format: functional, cell-based, Homo sapiens; conditions: Homo sapiens, VMRC-RCZ
Description: SANGER: Inhibition of human VMRC-RCZ cell growth in a cell viability assay.

WM-115 = experiment: cells; format: functional, cell-based, Homo sapiens; conditions: Homo sapiens, WM-115
Description: SANGER: Inhibition of human WM-115 cell growth in a cell viability assay.

CAMA-1 = experiment: cells; format: functional, cell-based, Homo sapiens; conditions: Homo sapiens, CAMA-1;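 also: growth inhibition of CAMA-1 cells, read out with a cell viability assay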
Description: SANGER: Inhibition of human CAMA-1 cell growth in a cell viability assay.

CHP-126 = experiment: cells; format: functional, cell-based, Homo sapiens; conditions: Homo sapiens, CHP-126
Description: SANGER: Inhibition of human CHP-126 cell growth in a cell viability assay.

Structure (SMILES): O=C(O)c1ccc(-c2c[nH]c3ncc(-c4ccccc4)cc23)cc1C1CCCC1 [GSK-650394]
- IC50 (Ca-Ski): > 16000 nM
- IC50 (CaR-1): > 16000 nM
- IC50 (Capan-2): > 16000 nM
- IC50 (DMS-153): > 16000 nM
- IC50 (DU-145): > 16000 nM
- IC50 (DoTc2-4510): > 16000 nM
- IC50 (FTC-133): > 16000 nM
- IC50 (G-401): > 16000 nM
- IC50 (H4): > 16000 nM
- IC50 (HO-1-N-1): > 16000 nM
- IC50 (HT-1080): 5490 nM
- IC50 (HT1197): > 16000 nM
- IC50 (HT55): > 16000 nM
- IC50 (HTC-C3): 10700 nM
- IC50 (KYSE-180): 2060 nM
- IC50 (L-540): > 16000 nM
- IC50 (LC-1F): > 16000 nM
- IC50 (LP-1): > 16000 nM
- IC50 (LU-165): > 16000 nM
- IC50 (LU-99A): > 16000 nM
- IC50 (MC-CAR): > 16000 nM
- IC50 (MDA-MB-175-VII): > 16000 nM
- IC50 (MDA-MB-453): > 16000 nM
- IC50 (MRK-nu-1): 7050 nM
- IC50 (NCI-H2009): 3760 nM
- IC50 (NCI-H524): > 16000 nM
- IC50 (NCI-H748): > 16000 nM
- IC50 (NCI-H810): > 16000 nM
- IC50 (SNU-16): > 16000 nM
- IC50 (NY): > 16000 nM
- IC50 (RCM-1): > 16000 nM
- IC50 (SCLC-21H): > 16000 nM
- IC50 (SK-MEL-24): > 16000 nM
- IC50 (SNU-387): > 16000 nM
- IC50 (SUP-T1): > 16000 nM
- IC50 (SW1088): > 16000 nM
- IC50 (SW1417): > 16000 nM
- IC50 (SW1710): 2700 nM
- IC50 (SW48): > 16000 nM
- IC50 (A-375): 5250 nM
- IC50 (BHT-101): > 16000 nM
- IC50 (BL-70): > 16000 nM
- IC50 (C3A): > 16000 nM
- IC50 (CAL-62): 4770 nM
- IC50 (THP-1): > 16000 nM
- IC50 (VMRC-RCZ): > 16000 nM
- IC50 (WM-115): > 16000 nM
- IC50 (CAMA-1): > 16000 nM
- IC50 (CHP-126): > 16000 nM

Structure (SMILES): COC1=CC(c2cc3ccccc3[nH]2)=N/C1=C\c1[nH]c(C)cc1C [OBATOCLAX MESYLATE]
- IC50 (Ca-Ski): 405 nM
- IC50 (CaR-1): 3980 nM
- IC50 (Capan-2): 666 nM
- IC50 (DMS-153): 2170 nM
- IC50 (DU-145): 467 nM
- IC50 (DoTc2-4510): 33.9 nM
- IC50 (FTC-133): 3650 nM
- IC50 (G-401): 30.9 nM
- IC50 (H4): 1150 nM
- IC50 (HO-1-N-1): 92.5 nM
- IC50 (HT-1080): 511 nM
- IC50 (HT1197): 395 nM
- IC50 (HT55): 2790 nM
- IC50 (HTC-C3): 104 nM
- IC50 (KYSE-180): 61.4 nM
- IC50 (L-540): 216 nM
- IC50 (LC-1F): 3720 nM
- IC50 (LP-1): 213 nM
- IC50 (LU-165): 5990 nM
- IC50 (LU-99A): 784 nM
- IC50 (MC-CAR): 23.6 nM
- IC50 (MDA-MB-175-VII): 1690 nM
- IC50 (MDA-MB-453): 2230 nM
- IC50 (MRK-nu-1): 49.4 nM
- IC50 (NCI-H2009): 347 nM
- IC50 (NCI-H524): 9590 nM
- IC50 (NCI-H748): 10600 nM
- IC50 (NCI-H810): 117 nM
- IC50 (SNU-16): 13100 nM
- IC50 (NY): 118 nM
- IC50 (RCM-1): 572 nM
- IC50 (SCLC-21H): 12200 nM
- IC50 (SK-MEL-24): 913 nM
- IC50 (SNU-387): 903 nM
- IC50 (SUP-T1): 29.5 nM
- IC50 (SW1088): 2780 nM
- IC50 (SW1417): < 62.5 nM
- IC50 (SW1710): 40.2 nM
- IC50 (SW48): 773 nM
- IC50 (A-375): < 62.5 nM
- IC50 (BHT-101): < 62.5 nM
- IC50 (BL-70): 63 nM
- IC50 (C3A): 374 nM
- IC50 (CAL-62): 26 nM
- IC50 (THP-1): 20 nM
- IC50 (VMRC-RCZ): 403 nM
- IC50 (WM-115): 4510 nM
- IC50 (CAMA-1): 436 nM
- IC50 (CHP-126): 1570 nM
